Laboratory results reported in patent publication US20260262643A1, “HERBICIDAL BENZOXAZINES” (FMC CORPORATION, priority 2022, published 2026).
Where two headings read alike, the source gives them in different places.

What was measured:
blackgrass = assay: Test A preemergence; format: in vivo, Alopecurus myosuroides; conditions: Alopecurus myosuroides, pre-emergence, 240 h, read-out: Plant response rating, Blackgrass; for pest or weed control at 125 g/ha: 125 g ai/ha, visual injury after 10 days, 0 to 100 scale, 0 is no effect, 100 is complete control; for pest or weed control at 500 g/ha: 500 g ai/ha, 0 to 100 scale (0 no effect, 100 complete control), 10 days
Procedure, shortened: (§1)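 Weeds and crops in loam–sand blend were sprayed preemergence onto soil or postemergence at 2–10 cm (one- to two-leaf stage). Test chemicals were in a non-phytotoxic solvent with surfactant. After 10 days in the greenhouse, injury was rated visually against untreated controls on a 0 (no effect) to 100 (complete control) scale.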

kochia [1] = assay: Test A preemergence; format: in vivo, Bassia scoparia; conditions: Bassia scoparia, pre-emergence, 240 h, read-out: Plant response rating, Kochia; for pest or weed control at 125 g/ha: 125 g ai/ha, visual injury after 10 days, 0 to 100 scale, 0 is no effect, 100 is complete control; for pest or weed control at 500 g/ha: 500 g ai/ha, 0 to 100 scale (0 no effect, 100 complete control), 10 days
Procedure, shortened: as §1

oat, wild [2] = assay: Test A preemergence; format: in vivo, Avena fatua; conditions: Avena fatua, pre-emergence, 240 h, read-out: Plant response rating, Oat, Wild; for pest or weed control at 125 g/ha: 125 g ai/ha, visual injury after 10 days, 0 to 100 scale, 0 is no effect, 100 is complete control; for pest or weed control at 500 g/ha: 500 g ai/ha, 0 to 100 scale (0 no effect, 100 complete control), 10 days
Procedure, shortened: as §1

pigweed, palmer = assay: Test A preemergence; format: in vivo, Amaranthus palmeri; conditions: Amaranthus palmeri, pre-emergence, 240 h, read-out: Plant response rating, Pigweed, Palmer; for pest or weed control at 125 g/ha: 125 g ai/ha, visual injury after 10 days, 0 to 100 scale, 0 is no effect, 100 is complete control; for pest or weed control at 500 g/ha: 500 g ai/ha, 0 to 100 scale (0 no effect, 100 complete control), 10 days
Procedure, shortened: as §1

soybean [3] = assay: Test A preemergence; format: in vivo, Glycine max; conditions: Glycine max, pre-emergence, 240 h, read-out: Plant response rating, Soybean; for plant injury at 125 g/ha: 125 g ai/ha, visual injury after 10 days, 0 to 100 scale, 0 is no effect, 100 is complete control; for plant injury at 500 g/ha: 500 g ai/ha, 0 to 100 scale (0 no effect, 100 complete control), 10 days
Procedure, shortened: as §1

kochia [4] = assay: Test A postemergence; format: in vivo, Bassia scoparia; conditions: Bassia scoparia, post-emergence, 240 h; for pest or weed control at 125 g/ha: 125 g ai/ha; for pest or weed control at 500 g/ha: 500 g ai/ha
Procedure, shortened: as §1

oat, wild [5] = assay: Test A postemergence; format: in vivo, Avena fatua; conditions: Avena fatua, post-emergence, 240 h; for pest or weed control at 125 g/ha: 125 g ai/ha; for pest or weed control at 500 g/ha: 500 g ai/ha
Procedure, shortened: as §1

ragweed = assay: Test A postemergence; format: in vivo, Ambrosia artemisiifolia; conditions: Ambrosia artemisiifolia, post-emergence, 240 h; for pest or weed control at 125 g/ha: 125 g ai/ha; for pest or weed control at 500 g/ha: 500 g ai/ha
Procedure, shortened: as §1

ryegrass, Italian = assay: Test A postemergence; format: in vivo, Lolium multiflorum; conditions: Lolium multiflorum, post-emergence, 240 h; for pest or weed control at 125 g/ha: 125 g ai/ha; for pest or weed control at 500 g/ha: 500 g ai/ha
Procedure, shortened: as §1

soybean [6] = assay: Test A postemergence; format: in vivo, Glycine max; conditions: Glycine max, post-emergence, 240 h; for plant injury at 125 g/ha: 125 g ai/ha; for plant injury at 500 g/ha: 500 g ai/ha
Procedure, shortened: as §1

wheat = assay: Test A postemergence; format: in vivo, Triticum aestivum; conditions: Triticum aestivum, post-emergence, 240 h; for plant injury at 125 g/ha: 125 g ai/ha; for plant injury at 500 g/ha: 500 g ai/ha
Procedure, shortened: as §1

galium = assay: Test A postemergence; format: in vivo, Galium aparine; conditions: Galium, post-emergence, 240 h; for pest or weed control at 125 g/ha: 125 g ai/ha; for pest or weed control at 500 g/ha: 500 g ai/ha
Procedure, shortened: as §1

ducksalad = assay: Test B flooded paddy test; format: in vivo, Heteranthera limosa; conditions: Heteranthera limosa, 312 h, 250 g ai/ha, Flood, 13 days, 0 to 100 scale (0 no effect, 100 complete control); read-out: Plant response rating, Ducksalad
Procedure, shortened: (§2)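 2-leaf stage; pots flooded 3 cm over soil; compound dosed into paddy water; depth kept constant. Greenhouse, 13 d. Visual rating vs controls, 0 (no effect)–100 (complete control). Dash = no result.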

rice = assay: Test B flooded paddy test; format: in vivo, Oryza sativa; conditions: Oryza sativa, 312 h; 250 g ai/ha, Flood, 13 days, 0 to 100 scale (0 no effect, 100 complete control); read-out: Plant response rating, Rice
Procedure, shortened: as §2

sedge, umbrella = assay: Test B flooded paddy test; format: in vivo, Cyperus difformis; conditions: Cyperus difformis, 312 h; 250 g ai/ha, Flood, 13 days, 0 to 100 scale (0 no effect, 100 complete control); read-out: Plant response rating, Sedge, Umbrella
Procedure, shortened: as §2

[7] = postemergence, 10 days, visual injury, 0 to 100 scale (0 no effect, 100 complete control), read-out: Plant response rating, Kochia
[8] = postemergence, 10 days, visual injury, 0 to 100 scale (0 no effect, 100 complete control), read-out: Plant response rating, Oat, Wild
[9] = postemergence, 10 days, visual injury, 0 to 100 scale (0 no effect, 100 complete control), read-out: Plant response rating, Ragweed
[10] = postemergence, 10 days, visual injury, 0 to 100 scale (0 no effect, 100 complete control), read-out: Plant response rating, Ryegrass, Italian
[11] = postemergence, 10 days, visual injury, 0 to 100 scale (0 no effect, 100 complete control), read-out: Plant response rating, Soybean
[12] = postemergence, 10 days, visual injury, 0 to 100 scale (0 no effect, 100 complete control), read-out: Plant response rating, Wheat
[13] = postemergence, 10 days, visual injury, 0 to 100 scale (0 no effect, 100 complete control), read-out: Plant response rating, Galium

With `COc1ccc(-n2cncn2)cc1C(=O)N1C[C@H](C)Oc2c(C)cccc21` [Compound 63, [(2S)-2,3-Dihydro-2,8-dimethyl-4H-1,4-benzoxazin-4-yl][2-methoxy-5-(1H-1,2,4-triazol-1-yl)phenyl]methanone] the pest or weed control at 125 g/ha (blackgrass) was 80%, the pest or weed control at 500 g/ha (blackgrass) was 90% and the pest or weed control at 125 g/ha (kochia [1]) was 30%. It also gave a pest or weed control at 500 g/ha (kochia [1]) of 40%, a pest or weed control at 125 g/ha (oat, wild [2]) of 60% and a pest or weed control at 500 g/ha (oat, wild [2]) of 90%. It also gave a pest or weed control at 125 g/ha (pigweed, palmer) of 40%, a pest or weed control at 500 g/ha (pigweed, palmer) of 90% and a plant injury at 125 g/ha (soybean [3]) of 100%. The plant injury at 500 g/ha (soybean [3]) was 100%, the pest or weed control at 125 g/ha (kochia [4]; [7]) was 10% and the pest or weed control at 500 g/ha (kochia [4]; Postemergence, 0 to 100 scale, read-out: Plant response rating, Kochia) was 20%. It also gave a pest or weed control at 125 g/ha (oat, wild [5]; [8]) of 70%, a pest or weed control at 500 g/ha (oat, wild [5]; Postemergence, 0 to 100 scale, read-out: Plant response rating, Oat, Wild) of 80% and a pest or weed control at 125 g/ha (ragweed; [9]) of 40%. For the same molecule, the pest or weed control at 500 g/ha (ragweed; Postemergence, 0 to 100 scale, read-out: Plant response rating, Ragweed) was 40%, the pest or weed control at 125 g/ha (ryegrass, Italian; [10]) was 80% and the pest or weed control at 500 g/ha (ryegrass, Italian; Postemergence, 0 to 100 scale, read-out: Plant response rating, Ryegrass, Italian) was 100%. The plant injury at 125 g/ha (soybean [6]; [11]) was 100%, the plant injury at 500 g/ha (soybean [6]; Postemergence, 0 to 100 scale, read-out: Plant response rating, Soybean) was 100% and the plant injury at 125 g/ha (wheat; [12]) was 70%. For the same molecule, the plant injury at 500 g/ha (wheat; Postemergence, 0 to 100 scale, read-out: Plant response rating, Wheat) was 90%, the pest or weed control at 125 g/ha (galium; [13]) was 100% and the pest or weed control at 500 g/ha (galium; Postemergence, 0 to 100 scale, read-out: Plant response rating, Galium) was 100%. The pest or weed control at 250 g/ha (ducksalad) was 90%, the plant injury at 250 g/ha (rice) was 0% and the pest or weed control at 250 g/ha (sedge, umbrella) was 98%.

Molecule `CCc1ccc(-n2cnc(C(C)C)n2)cc1C(=O)N1C[C@H](C)Oc2c(Cl)cccc21` [Compound 94, [(2S)-8-Chloro-2,3-dihydro-2-methyl-4H-1,4-benzoxazin-4-yl][2-ethyl-5-[3-(1-methylethyl)-1H-1,2,4-triazol-1-yl]phenyl]methanone] has a pest or weed control at 125 g/ha (blackgrass) of 90%, a pest or weed control at 500 g/ha (blackgrass) of 90% and a pest or weed control at 125 g/ha (kochia [1]) of 90%. The pest or weed control at 500 g/ha (kochia [1]) was 100%, the pest or weed control at 125 g/ha (oat, wild [2]) was 40% and the pest or weed control at 500 g/ha (oat, wild [2]) was 90%. The pest or weed control at 125 g/ha (pigweed, palmer) was 100%, the pest or weed control at 500 g/ha (pigweed, palmer) was 100% and the plant injury at 125 g/ha (soybean [3]) was 50%. The plant injury at 500 g/ha (soybean [3]) was 100%, the pest or weed control at 125 g/ha (kochia [4]; postemergence, 10 days, 0 to 100 scale (0 no effect, 100 complete control), read-out: Kochia plant response rating) was 100% and the pest or weed control at 500 g/ha (kochia [4]; [7]) was 100%. For the same molecule, the pest or weed control at 125 g/ha (oat, wild [5]; postemergence, 10 days, 0 to 100 scale (0 no effect, 100 complete control), read-out: Oat, Wild plant response rating) was 80%, the pest or weed control at 500 g/ha (oat, wild [5]; [8]) was 80% and the pest or weed control at 125 g/ha (ragweed; postemergence, 10 days, 0 to 100 scale (0 no effect, 100 complete control), read-out: Ragweed plant response rating) was 50%. It also gave a pest or weed control at 500 g/ha (ragweed; [9]) of 50%, a pest or weed control at 125 g/ha (ryegrass, Italian; postemergence, 10 days, 0 to 100 scale (0 no effect, 100 complete control), read-out: Ryegrass, Italian plant response rating) of 50% and a pest or weed control at 500 g/ha (ryegrass, Italian; [10]) of 90%. For the same molecule, the plant injury at 125 g/ha (soybean [6]; postemergence, 10 days, 0 to 100 scale (0 no effect, 100 complete control), read-out: Soybean plant response rating) was 100%, the plant injury at 500 g/ha (soybean [6]; [11]) was 100% and the plant injury at 125 g/ha (wheat; postemergence, 10 days, 0 to 100 scale (0 no effect, 100 complete control), read-out: Wheat plant response rating) was 30%. It also gave a plant injury at 500 g/ha (wheat; [12]) of 70%, a pest or weed control at 125 g/ha (galium; postemergence, 10 days, 0 to 100 scale (0 no effect, 100 complete control), read-out: Galium plant response rating) of 100% and a pest or weed control at 500 g/ha (galium; [13]) of 100%. For the same molecule, the pest or weed control at 250 g/ha (ducksalad) was 70%, the plant injury at 250 g/ha (rice) was 0% and the pest or weed control at 250 g/ha (sedge, umbrella) was 98%.
